Reference: patent publication US12104178B2, “DHFR tunable protein regulation” (Obsidian Therapeutics, Inc., priority 2017, dated 2024)
Read-outs that look alike come from different tables or passages of the source.

How the values were obtained:
in vivo = conditions: Balb/C nu/nu, mouse, plasma
T cells [1] = assay: TMP dose and exposure time on membrane bound IL15 expression (Table 89); assay type: cell-based; conditions: T-cell
Procedure: For this purpose, T cells were activated with CD3/CD28 beads at 3:1 bead to T cell ratio in 24-well plates for 24 hrs. Lentivirus was added to wells. After 24 hrs, fresh media was added every 2-3 days to expand cells while maintaining cells at 0.5-1×10^6/ml. On day 11 of expansion.

T cells [2] = conditions: human, 160 μM
Procedure: The percentage of divided cells within the CD4 and the CD8 populations of T cells was measured using FACS.

HEK-293T cells = assay: DD-IL15 induction, human IL15 ELISA (Table 80); assay type: cell-based; conditions: DD-IL15 (OT-IL15-002, ecDHFR-IL15) in HEK-293T, TMP 24 hrs
Procedure: To test ligand dependent IL15 production, 1 million HEK-293T cells were plated in a 6-well plate in growth media containing DMEM and 10% FBS and incubated overnight at 37° C. at 5% CO2. Cells were then transfected with 100 ng of OT-IL15-001(constitutive) or OT-IL15-002 (ecDHFR-IL15) using Lipofectamine 2000 and incubated for 48 hrs. […] Media was collected and the undiluted samples or samples diluted 4, 16, 256, 1024, 4096 or 16384-fold were tested using human IL15 ELISA. The stabilization ratio was defined as fold change in IL15 expression with ligand treatment compared to treatment with DMSO (i.e. in the absence of ligand) with the same construct.

concentration at 0.083 h (in vivo; 30 mg/kg): 25.7 µM | concentration at 0.25 h (in vivo; 30 mg/kg): 19.6 µM | concentration at 0.5 h (in vivo; 30 mg/kg): 9.84 µM | concentration at 1 h (in vivo; 30 mg/kg): 2.55 µM | concentration at 2 h (in vivo; 30 mg/kg): 1.19 µM | concentration at 4 h (in vivo; 30 mg/kg): 0.16 µM | concentration at 8 h (in vivo; 30 mg/kg): 0.04 µM | concentration at 0.083 h (in vivo; 100 mg/kg): 81.5 µM | concentration at 0.25 h (in vivo; 100 mg/kg): 78.1 µM | concentration at 0.5 h (in vivo; 100 mg/kg): 58.8 µM | concentration at 1 h (in vivo; 100 mg/kg): 27.6 µM | concentration at 2 h (in vivo; 100 mg/kg): 2.97 µM | concentration at 8 h (in vivo; 100 mg/kg): 0.56 µM | concentration at 24 h (in vivo; 100 mg/kg): 0.01 µM | concentration at 0.083 h (in vivo; 300 mg/kg): 117 µM | concentration at 0.25 h (in vivo; 300 mg/kg): 137 µM | concentration at 0.5 h (in vivo; 300 mg/kg): 128 µM | concentration at 1 h (in vivo; 300 mg/kg): 80 µM | concentration at 2 h (in vivo; 300 mg/kg): 32.6 µM | concentration at 4 h (in vivo; 300 mg/kg): 1.03 µM | concentration at 8 h (in vivo; 300 mg/kg): 0.3 µM | concentration at 24 h (in vivo; 300 mg/kg): 0.01 µM | EC50 (T cells [1]; 6 h, read-out: EC50, uM (% IL15 + IL15Ra+)): 0.021 µM | EC50 (T cells [1]; 6 h, read-out: EC50, uM (total IL15 MFI)): 0.03 µM | EC90 (T cells [1]; 6 h, read-out: EC90, uM (% IL15 + IL15Ra+)): 0.81 µM | EC90 (T cells [1]; 6 h, read-out: EC90, uM (total IL15 MFI)): 0.88 µM | EC50 (T cells [1]; 24 h, read-out: EC50, uM (% IL15 + IL15Ra+)): 0.035 µM | EC50 (T cells [1]; 24 h, read-out: EC50, uM (total IL15 MFI)): 0.063 µM | EC90 (T cells [1]; 24 h, read-out: EC90, uM (% IL15 + IL15Ra+)): 0.255 µM | EC90 (T cells [1]; 24 h, read-out: EC90, uM (total IL15 MFI)): 0.75 µM | EC50 (T cells [1]; read-out: EC50, uM (% IL15 + IL15Ra+)): 11.5 µM | EC50 (T cells [1]; read-out: EC50, uM (total IL15 MFI)): 11.1 µM | EC90 (T cells [1]; read-out: EC90, uM (% IL15 + IL15Ra+)): 59.6 µM | EC90 (T cells [1]; read-out: EC90, uM (total IL15 MFI)): 66.9 µM | Reduction in the percentage of divided cells (T cells [2]): 70-90% | TMP concentration in the plasma at early time points (100 mg/kg): 50 to 100 µM | TMP concentration in the plasma at early time points (300 mg/kg): 100 to 150 µM | TMP levels in the plasma 4 hours after dosing (all doses): Virtually no TMP levels were detected
SMILES: COc1cc(Cc2cnc(N)nc2N)cc(OC)c1OC [TMP, Trimethoprim]
IL15 ELISA reading, 10 μM TMP (HEK-293T cells; media dilution 1-fold): 0.820 | IL15 ELISA reading, 10 μM TMP (HEK-293T cells; media dilution 4-fold): 0.287 | IL15 ELISA reading, 10 μM TMP (HEK-293T cells; media dilution 16-fold): 0.116 | IL15 ELISA reading, 10 μM TMP (HEK-293T cells; media dilution 64-fold): 0.073 | IL15 ELISA reading, 10 μM TMP (HEK-293T cells; media dilution 256-fold): 0.057 | IL15 ELISA reading, 10 μM TMP (HEK-293T cells; media dilution 1024-fold): 0.048 | IL15 ELISA reading, 10 μM TMP (HEK-293T cells; media dilution 4096-fold): 0.049 | IL15 ELISA reading, 10 μM TMP (HEK-293T cells; media dilution 16384-fold): 0.049
